# Measured values from patent US11026918B2, “Method of preventing or treating a pulmonary disease or condition” (THE BOARD OF TRUSTEES OF THE UNIVERSITY OF ILLINOIS, priority 2014, dated 2021).
# “Also recorded” adds a separate entry of the source.
# Key:
# [1] = target: sphingosine kinase-1/SphK1 (Homo sapiens, UniProt Q9NYA1); settings: cited from earlier work
# irradiated C57B1/6 mice = settings: 20 Gy thoracic irradiation, cited from earlier work
# [2] = test system: bleomycin-challenged C57BL/6J mice; experiment: Bleomycin-induced pulmonary fibrosis in mice treated with PF-543; type: in vivo; settings: PF-543 i.p. 5 mg/kg twice per week
# Method: In Vivo Studies. In this analysis, 8 week-old, wild-type, C57BL/6J mice were treated with 1.5 U/kg bleomycin.
# [3] = test system: newborn mice exposed to hyperoxia (75%); experiment: Hyperoxia-induced lung injury in newborn mice; type: in vivo; settings: PF-543 20 mg/kg/day
# From the text: Therefore, PF-543 protected the lungs of the newborn mice from oxygen injury.
# S1P receptors = settings: cited from earlier work
# human lung fibroblasts [4] = experiment: TGF-β-mediated differentiation of human lung fibroblasts, PF-543; type: cell-based
# From the text: TGF-β-induced fibroblast differentiation was characterized to analyze the expression of fibronectin and α-SMA. […] Additionally, compared with the control mouse lung fibroblast (from wild-type mice), TGF-β-induced fibroblast differentiation and expression of YAP1 were dramatically lower in the lung fibroblast isolated from SphK1^−/− mice. Accordingly, selective inhibition of SphK1 is useful in the prevention and treatment of bleomycin-induced pulmonary fibrosis.
# HLMVECs = experiment: Hyperoxia-induced S1P generation, p47phox activation and ROS generation in HLMVECs, PF-543; type: cell-based, human
# From the text: HLMVECs were transfected with p47-roGFP prior to exposure to hyperoxia.
# [5] = test system: adult mice exposed to oxygen (75%); experiment: Hyperoxia-induced lung injury in adult mice; type: in vivo; settings: 5 mg/kg/d PF-543 x 2 days prior to oxygen (75%)
# [6] = cited from earlier work
# [7] = test system: bleomycin-challenged mice; settings: SKI-II eight days post-bleomycin challenge; cited from earlier work
# human lung fibroblasts [8] = settings: SKI-II; cited from earlier work
# [9] = test system: human lung microvascular endothelial cells (HLMVECs); settings: SKI-II, cited from earlier work
# rats exposed to hypoxia = settings: SKI-II 10 mg/kg intraperitoneally, once every other day for 3.5 weeks; vs vehicle; cited from earlier work
# [10] = 0.375 mg/kg myriocin p.o. 3x/week, 0.375 mg/kg
# [11] = PF-543 1-5 μM, 1 hour pretreatment, TGF-β 5 ng/ml, 48 hours
# sphingosine kinase-1/SphK1, sequence (Q9NYA1 whole entry): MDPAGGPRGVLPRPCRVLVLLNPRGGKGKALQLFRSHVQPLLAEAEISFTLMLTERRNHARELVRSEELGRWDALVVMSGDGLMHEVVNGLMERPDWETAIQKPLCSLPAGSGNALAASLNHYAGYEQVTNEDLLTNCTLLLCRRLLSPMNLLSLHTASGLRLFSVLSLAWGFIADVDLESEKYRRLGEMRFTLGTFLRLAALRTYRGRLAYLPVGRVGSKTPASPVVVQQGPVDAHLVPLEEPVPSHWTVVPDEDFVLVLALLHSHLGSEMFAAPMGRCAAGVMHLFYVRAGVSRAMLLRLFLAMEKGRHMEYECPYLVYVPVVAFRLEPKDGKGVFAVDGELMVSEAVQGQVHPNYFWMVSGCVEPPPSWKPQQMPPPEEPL
smiles,measurement,setting,value
CCCCCCCCCCCCCC#CC(=O)C1COC(C)(C)N1C(=O)OC(C)(C)C (stereo not shown) [SKI 5C],IC50,[1],3.3 µM
CCCCCCCCCCCCc1ccc(NC(=O)C2(C(=N)N)CC2)cc1 [Compound 2],Ki,[1],0.3 µM
same,selectivity for SphK1 over SphK2,[1],40 fold
CCCCCCC(=O)CCCCCC/C=C/C[C@@H](O)[C@H](O)[C@@](N)(CO)C(=O)O [myriocin],radiation-induced pulmonary fibrosis (onset of RIF),irradiated C57B1/6 mice; [10],decreases; also recorded: delays
same,radiation-induced pulmonary inflammation,irradiated C57B1/6 mice; [10],decreases; also recorded: reduces
same,animal lifespan (survival),irradiated C57B1/6 mice; 0.375 mg/kg myriocin p.o. 3x/week,increased
same,SphK2 mRNA levels and protein expression,irradiated C57B1/6 mice; myriocin,Neither parameter is affected
same,"expression of markers of fibrogenesis (collagen, α-SMA) in the lung",irradiated C57B1/6 mice; myriocin,decreased
same,radiation-increased SphK1 mRNA levels and SphK1 protein expression,irradiated C57B1/6 mice; myriocin,decreased
same,radiation-induced increase in total SphK activity in lung tissue,irradiated C57B1/6 mice; myriocin,hinder; also recorded: inhibition
CCCCCCCCCCCCCCC[C@@H](O)C(C)N (stereo partly shown) [Compound 55-21],IC50,[1],7.1 µM
same,selectivity for SphK1 over SphK2,[1],~108 fold
CCCCCCCCCCCCc1ccc(C(=O)NC2(C(=N)N)CC2)cc1 [Compound 1],selectivity for SphK1 over SphK2,[1],5 fold
"Cc1cc(CS(=O)(=O)c2ccccc2)cc(OCc2ccc(CN3CCC[C@@H]3CO)cc2)c1 [PF-543, [(2R)-1-[[4-[[3-(benzenesulfonylmethyl)-5-methylphenoxy]methyl]phenyl]methyl]pyrrolidin-2-yl] methanol]",protection against lung injury and pulmonary fibrosis,"[2]; 1.5 U/kg bleomycin, day 7 to 21 post-bleomycin, 5 mg/kg",ameliorates; also recorded: partly protected
same,TGF-β levels in bronchoalveolar lavage (BAL) fluids,[2]; day 7 to 21 post-bleomycin,decreased
same,expression of α-SMA and fibronectin in lung tissues,[2]; day 7 to 21 post-bleomycin,decreased
same,total collagen deposition,"[2]; day 7 to 21 post-bleomycin, vs bleomycin without PF-543",decreased
same,Ashcroft's score,[2]; day 21 to 42 post-bleomycin,decrease
same,collagen deposition,[2]; day 21 to 42 post-bleomycin,decrease
same,resolution of pulmonary fibrosis,[2]; day 21 to 42 post-bleomycin,enhanced resolution
same,lung structure,[3],well preserved
same,affinity toward S1P receptors,S1P receptors,does not exhibit any affinity
same,TGF-β-induced expression of fibronectin and α-SMA,human lung fibroblasts [4]; [11],decreased; also recorded: dramatically inhibited
same,TGF-β-mediated fibroblast differentiation to myofibroblasts,human lung fibroblasts [4]; [11],attenuated; also recorded: dramatically inhibited
same,TGF-β-induced expression of YAP1,"human lung fibroblasts [4]; PF-543 pretreatment, TGF-β",attenuated; also recorded: dramatically inhibited
same,attenuation of hyperoxia-mediated [32P]S1P generation,HLMVECs,> 80%
same,hyperoxia-induced ROS generation,HLMVECs,attenuates; also recorded: inhibited
same,exogenous S1P-mediated translocation of p47phox to cell periphery / activation,HLMVECs; exogenous S1P instead of hyperoxia,not affected; also recorded: did not affect
same,hyperoxia-induced aggregation and stimulation of p47phox biosensor protein (p47-roGFP),"HLMVECs; live cell imaging, HLMVECs transfected with p47-roGFP",suppressed
same,hyperoxia-induced p47phox translocation to cell periphery / activation of p47phox,HLMVECs; pre-treated with PF-543,inhibited; also recorded: attenuated
same,BAL fluid total protein concentration,[5],decreases; also recorded: reduced
same,BAL inflammatory cell infiltrate (WBC count),[5],decreases; also recorded: reduced
same,hyperoxia-induced lung injury,[5],attenuated
same,lung inflammatory fluid infiltration (lung histology),[5],reduced
same,cell permeability,[6],cell-permeable
"Oc1ccc(Nc2nc(-c3ccc(Cl)cc3)cs2)cc1 [SKI-II, 4-[[4-(4-chlorophenyl)-2-thiazolyl]amino]-phenol]",bleomycin-induced mortality,[7],reduces
same,bleomycin-induced pulmonary fibrosis,[7],reduces
same,S1P generation and TGF-β-mediated signal transduction,human lung fibroblasts [8],attenuates
same,ROS production under hyperoxia (DCFDA fluorescence),[9]; 24 hours before hyperoxia (95% O2) for 3 hours,blocked
same,hyperoxia-induced S1P generation,[9],attenuates
same,"development of HPH (RVSP, RVH, pulmonary vascular remodeling)",rats exposed to hypoxia,prevents
N=C(N)C1(C(=O)NCCCCCCCCCCOCC2CCCCC2)CC1 [Compound 4],selectivity for SphK1 over SphK2,[1],470 fold
N=C(N)[C@@H]1CCCN1C(=O)c1ccc(-c2nc(-c3cccc(CCC4CCCCC4)c3)co2)cc1 [Compound 5],selectivity for SphK1 over SphK2,[1],180 fold
